Laboratory results as given in patent publication EP4567031A1, “HPK1 INHIBITOR, PREPARATION METHOD THEREFOR, AND USE THEREOF” (Beijing Earthwise Technology Co., Ltd., priority 2022, dated 2024).

System: human Pan T cells
Assay: Human Pan T cell IL-2 ELISA
Format: cell-based
Conditions: Anti-CD3 and Anti-CD28, 48 hours, supernatant IL-2 ELISA, read-out: IL-2 release, EC50
Method: A compound was dissolved in DMSO to 10 mM, and then diluted three-fold with DMSO to 9 dosages in a 96-well plate. Then, 10 µL of the diluted compound sample was transferred to a 96-well plate with 90 µL of cell culture medium, and the plate was shaken for 5 minutes. Then, 5 µL of the diluted compound sample was transferred to a 96-well plate with 120 µL of cell culture medium, and the plate was shaken for 5 minutes. According to the experimental design diagram, 50 µL of the diluted compound sample was transferred to a cell plate. Final concentrations of the compound in this assay were 10000.00, 5000, 2500, 1250, 625, 312.5, 156.25, 78.125 and 39.063 nM.
The assay was conducted in a 96-well plate. On the first day of the assay, Anti-CD3 was added to the 96-well plate and incubated in a 4 °C refrigerator overnight. On the second day of the assay, human Pan T cells were recovered, centrifuged and counted. The cell density was adjusted to 1*10^6 cells/ml. Then, 100 µL of cells were added to the 96-well plate washed with PBS and added with Anti-CD3; according to the experimental design diagram, 50 µL of diluted Anti-CD28 and 50 µL of the diluted compound were added to each well, centrifuged, and the cell plate was placed and incubated in an incubator for 48 hours; after 48 hours, the plate was centrifuged and the supernatant was collected for IL-2 ELISA.
The signal value of light absorption was converted into a multiple. Multiple = sample value/the average value of control wells. The average value of control wells refers to the value measured in wells with DMSO added. EC50 values were calculated by XLFit (version 5.3.1.3) in Excel. Equation: Y=Bottom + (Top-Bottom) / (1 + (EC50/X) ^ HillSlope). Table 6. Results of cellular activity of the compounds

EC50 [nM] | SMILES
27 | CO[C@H]1CCCn2c(-c3cc4c(c5c3CNC5=O)Nc3ccc(N5CC6CCC(C5)O6)cc3C4(C)C)cnc21 [Example 196]

Same assay, conditions: Homo sapiens, T-cell, 48 h, Anti-CD3 and Anti-CD28, supernatant IL-2 ELISA, read-out: IL-2 release, EC50

EC50 [nM] | SMILES
7.32 | CC1(C)c2cc(N3CCOC(CO)C3)ccc2Nc2c1cc(-c1cnn3cccnc13)c1c2C(=O)NC1 (stereo not drawn) [Example 118]
8.52 | Cn1cnc2c(-c3cc4c(c5c3CNC5=O)Nc3ccc(N5CCOC(C(C)(C)O)C5)cc3C4(C)C)cncc21 (stereo not drawn) [Example 119]
4.3 | CC1(C)c2cc(N3CCOC(C(C)(C)O)C3)ccc2Nc2c1cc(-c1cnn3ccccc13)c1c2C(=O)NC1 (stereo not drawn) [Example 122]
20.3 | CC1(C)c2cc(N3CCOC(C(C)(C)O)C3)ccc2Nc2c1cc(-c1cnc3n1CCCCC3)c1c2C(=O)NC1 (stereo not drawn) [Example 123]
15.7 | CC1(C)c2cc(-c3cnc4cc(F)ccn34)c3c(c2Nc2ccc(N4CCOC(C(C)(C)O)C4)c(F)c21)C(=O)NC3 (stereo not drawn) [Example 124]
8.27 | COCC1CN(c2ccc3c(c2)C(C)(C)c2cc(-c4cnc5c(F)c(C)ccn45)c4c(c2N3)C(=O)NC4)CCO1 (stereo not drawn) [Example 131]
2.76 | CC1(C)c2cc(N3CCOCC3)ccc2Nc2c1cc(-c1cnc3cnccn13)c1c2C(=O)NC1 [Example 156]
12.6 | CCOc1nccn2c(-c3cc4c(c5c3CNC5=O)Nc3ccc(N5CCOCC5)cc3C4(C)C)cnc12 [Example 160]
6.36 | CC1(C)c2cc(N3CCOCC3)ccc2Nc2c1cc(-c1cnc3cc(C(F)F)ccn13)c1c2C(=O)NC1 [Example 161]
17 | CCc1nccn2c(-c3cc4c(c5c3CNC5=O)Nc3ccc(N5CCOCC5)cc3C4(C)C)cnc12 [Example 164]
4.8 | CC1(C)c2cc(N3CCOCC3)ccc2Nc2c1cc(-c1cnc3cc(C#N)ccn13)c1c2C(=O)NC1 [Example 165]
6.4 | CC1(C)c2cc(N3CCO[C@@H](C(C)(C)O)C3)ccc2Nc2c1cc(-c1cnn3cc(C(F)F)ccc13)c1c2C(=O)NC1 [Example 169]
6.3 | COc1ccnc2c(-c3cc4c(c5c3CNC5=O)Nc3ccc(N5CCO[C@@H](C(C)(C)O)C5)cc3C4(C)C)cnn12 [Example 171]
8.1 | CC1(C)c2cc(N3CCOCC3)ccc2Nc2c1cc(-c1cnc3c(OC(F)F)nccn13)c1c2C(=O)NC1 [Example 172]
3.8 | Cc1nccn2c(-c3cc4c(c5c3CNC5=O)Nc3ccc(N5CCOCC5)cc3C4(C)C)cnc12 [Example 173]
39 | Cn1c(-c2cc3c(c4c2CNC4=O)Nc2ccc(N4CCO[C@@H](C(C)(C)O)C4)cc2C3(C)C)cnc1N1CCOCC1 [Example 174]
6.9 | CC1(C)c2cc(N3CCO[C@@H](C(C)(C)O)C3)ccc2Nc2c1cc(-c1cnc3c(F)c(C#N)ccn13)c1c2C(=O)NC1 [Example 179]
14 | CC1(C)c2cc(N3CCOCC3)ccc2Nc2c1cc(-c1cnc3c(OC4COC4)nccn13)c1c2C(=O)NC1 [Example 184]
2.2 | Cc1ccn2c(-c3cc4c(c5c3CNC5=O)Nc3ccc(N5CCOCC5)cc3C4(C)C)cnc2n1 [Example 185]
7.9 | COc1ccn2c(-c3cc4c(c5c3CNC5=O)Nc3ccc(N5CCOCC5)cc3C4(C)C)cnc2c1 [Example 186]

EC50 [nM] | SMILES
73 | CC1(C)c2cc(N3CCOCC3)ccc2Nc2c1cc(-c1cnc3c(C4COC4)nccn13)c1c2C(=O)NC1 [Example 188]
5.7 | COc1ccn2c(-c3cc4c(c5c3CNC5=O)Nc3ccc(N5CCOCC5)cc3C4(C)C)cnc2n1 [Example 189]
19 | CC1(C)c2cc(N3CCOCC3)ccc2Nc2c1cc(-c1cnc3c(C#N)nccn13)c1c2C(=O)NC1 [Example 192]
9.5 | CC1(C)c2cc(N3CCOCC3)ccc2Nc2c1cc(-c1cnc3c(F)c(C(F)F)ccn13)c1c2C(=O)NC1 [Example 193]
4.3 | COc1nccn2c(-c3cc4c(c5c3CNC5=O)Nc3ccc(N5CCN6CCOCC6C5)cc3C4(C)C)cnc12 (stereo not drawn) [Example 194]
3.7 | COCC1CN(c2ccc3c(c2)C(C)(C)c2cc(-c4cnc5c(OC)nccn45)c4c(c2N3)C(=O)NC4)CCO1 (stereo not drawn) [Example 195]
11 | CC1(C)c2cc(N3CCOCC3)ccc2Nc2c1cc(-c1cnc3nc(C(F)F)ccn13)c1c2C(=O)NC1 [Example 197]
5.3 | CC1(C)c2cc(N3CCOCC3)ccc2Nc2c1cc(-c1cnc3c(F)c(C#N)ccn13)c1c2C(=O)NC1 [Example 198]
24 | CC1(C)c2cc(N3CCOCC3)ccc2Nc2c1cc(-c1cnc3c(OC4CC4)nccn13)c1c2C(=O)NC1 [Example 199]
1.4 | COCC1(O)CCN(c2ccc3c(c2)C(C)(C)c2cc(-c4cnc5c(OC)nccn45)c4c(c2N3)C(=O)NC4)CC1 [Example 200]
2.7 | COc1nccn2c(-c3cc4c(c5c3CNC5=O)Nc3ccc(N5CCOC6(CC6)C5)cc3C4(C)C)cnc12 [Example 201]
6.6 | CC1(C)c2cc(N3CCOC(C4(O)CC4)C3)ccc2Nc2c1cc(-c1cnc3cc(C(F)F)ccn13)c1c2C(=O)NC1 (stereo not drawn) [Example 205]
99 | CC1(C)c2cc(N3CCOCC3)ccc2Nc2c1cc(-c1cnc3cc(N4CCC4)ccn13)c1c2C(=O)NC1 [Example 206]
23 | CC1(C)c2cc(N3CCOCC3)ccc2Nc2c1cc(-c1cnc3cc(N4CC(F)C4)ccn13)c1c2C(=O)NC1 [Example 207]
16 | CC(C)(O)c1ccn2c(-c3cc4c(c5c3CNC5=O)Nc3ccc(N5CCOCC5)cc3C4(C)C)cnc2c1 [Example 208]
3.3 | COc1c(F)ccn2c(-c3cc4c(c5c3CNC5=O)Nc3ccc(N5CCOCC5)cc3C4(C)C)cnc12 [Example 209]
55 | CC1(C)c2cc(N3CCOCC3)ccc2Nc2c1cc(-c1cnc3c(N4CCC4)nccn13)c1c2C(=O)NC1 [Example 211]
5.4 | C#Cc1ccn2c(-c3cc4c(c5c3CNC5=O)Nc3ccc(N5CCOCC5)cc3C4(C)C)cnc2c1 [Example 216]
19 | CC1(C)c2cc(N3CCOCC3)ccc2Nc2c1cc(-c1cnc3cc(OC4COC4)ccn13)c1c2C(=O)NC1 [Example 217]
6.4 | CC1(C)c2cc(N3CCOCC3)ccc2Nc2c1cc(-c1cnc3c(C(F)F)nccn13)c1c2C(=O)NC1 [Example 222]

EC50 [nM] | SMILES
33 | CC1(C)c2cc(N3CCOCC3)ccc2Nc2c1cc(-c1cnc3c(OC4CNC4)nccn13)c1c2C(=O)NC1 [Example 224]
8.1 | COc1ccn2c(-c3cc4c(c5c3CNC5=O)Nc3ccc(N5CCOCC5)cc3C4(C)C)cnc2c1F [Example 225]
8.7 | CC1(C)c2cc(N3CCOCC3)ccc2Nc2c1cc(-c1cnn3cc(C#N)ccc13)c1c2C(=O)NC1 [Example 237]
58 | COc1nccn2c(-c3cc4c(c5c3CNC5=O)Nc3ccc(N5CCOCC5=O)cc3C4(C)C)cnc12 [Example 238]
9.2 | CC1(C)c2cc(N3CCOCC3)ccc2Nc2c1cc(-c1cnc3cc(C#N)cnn13)c1c2C(=O)NC1 [Example 246]
9.2 | CC1(C)c2cc(N3CCOCC3)ccc2Nc2c1cc(-c1cnc3nc(N4CC(F)C4)ccn13)c1c2C(=O)NC1 [Example 247]
1.9 | Cn1cnc2c(-c3cc4c(c5c3CNC5=O)Nc3ccc(N5CCOCC5)cc3C4(C)C)cncc21 [Example 248]
4.7 | CC1(C)c2cc(N3CCOCC3)ccc2Nc2c1cc(-c1nnc3cc(C#N)ccn13)c1c2C(=O)NC1 [Example 249]
3.1 | CC1(C)c2cc(N3CCOCC3)ccc2Nc2c1cc(-c1cnc3ncccn13)c1c2C(=O)NC1 [Example 250]
6.4 | Cc1c(-c2cc3c(c4c2CNC4=O)Nc2ccc(N4CCOCC4)cc2C3(C)C)cnc2c1NCCO2 [Example 251]
54 | CC1(C)c2cc(N3CCOCC3)ccc2Nc2c1cc(-c1cnc3nc(N4CC(O)C4)ccn13)c1c2C(=O)NC1 [Example 253]
28 | CC1(C)c2cc(N3CCOCC3)ccc2Nc2c1cc(-c1cnc3nc(C4CC4)ccn13)c1c2C(=O)NC1 [Example 254]
5 | COc1nccn2c(-c3cc4c(c5c3CNC5=O)Nc3ccc(C5CNC(=O)C5)cc3C4(C)C)cnc12 (stereo not drawn) [Example 255]
16 | CC1(O)CCN(c2ccc3c(c2)C(C)(C)c2cc(-c4cnc5nc(C(F)F)ccn45)c4c(c2N3)C(=O)NC4)CC1 [Example 256]
154 | CN(C)C(=O)c1ccc2c(c1)C(C)(C)c1cc(-c3cnc4nc(C(F)F)ccn34)c3c(c1N2)C(=O)NC3 [Example 257]
6.1 | CC1(C)c2cc(N3CCOCC3)ccc2Nc2c1cc(-c1cnc3c(=O)n(C(F)F)ccn13)c1c2C(=O)NC1 [Example 258]
13 | COc1nccn2c(-c3cc4c(c5c3CCNC5=O)Nc3ccc(N5CCOCC5)cc3C4(C)C)cnc12 [Example 280]
44 | CC1(C)c2cc(N3CCOCC3)ccc2Nc2c1cc(-c1cnc3nc(C(F)F)ccn13)c1c2C(=O)NCC1 [Example 282]

SMILES | EC50 [nM]
COc1nccn2c(-c3cc4c(c5c3CNC5=O)Nc3ccc(N5C6CCC5COC6)cc3C4(C)C)cnc12 [Example 232] | 11
